This data set can be described thus: Solubility test in FaSSIF at 37° C. It is filed as physicochemical. As to conditions: FaSSIF (Fasted State Simulated Intestinal Fluid), thermodynamic from solid. From the text:
Experimental Example 3: Solubility Test

Converted amounts (≈) assume the structure as drawn.

Usually solubility stands for how much of the substance goes into solution per volume. A higher solubility goes with a readily soluble substance.

Compound `C#Cc1cc(Oc2cnc(N)nc2N)c(C(C)C)cn1` [Free base, 5-((2-ethynyl-5-isopropylpyridin-4-yl)oxy)pyrimidine-2,4-diamine] had a solubility at 30 min (30 min) of 80 µg/mL (≈ 297 µM). Moreover, the concentration in solution (2 h) (solubility at 2 h) was 80 µg/mL (≈ 297 µM). In addition, where the note is “24 h”, the solubility at 24 h was 110 µg/mL (≈ 408 µM).

The values above are taken from US12459917B2, “Salt of diaminopyrimidine compounds, and solid form thereof, preparation method therefor and use thereof” (BEIJING TIDE PHARMACEUTICAL CO., LTD., priority 2019, dated 2025).
